From patent US6677331B2, “Carbapenem derivatives” (Meiji Seika Kaisha, Ltd., priority 1998, dated 2004)

Assays:
C. freundii GN346 = assay: Test 1: Anti-Microbial Activities (MIC); type: cell-based; conditions: Citrobacter freundii, Sensitivity Disk agar-N+5% Horse blood, inoculants 10^6 CFU/ml, read-out: minimum inhibiting concentrations (MIC)
Description: (§1) The minimum inhibiting concentrations (MIC, μg/ml) of the compounds according to the present invention to various pathogenic bacteria was measured in accordance with the method described in CHEMOTHERAPY, vol. 16, No. 1,99, 1968. The culture medium for measurement was Sensitivity Disk agar-N+5% Horse blood, and the amount of inoculants was 10^6 CFU/ml.

E. coli NIHJ JC-2 = assay: Test 1: Anti-Microbial Activities (MIC); type: cell-based; conditions: Escherichia coli, NIHJJC2, Sensitivity Disk agar-N+5% Horse blood, inoculants 10^6 CFU/ml, read-out: minimum inhibiting concentrations (MIC)
Description: as §1

E. faecalis W-73 = assay: Test 1: Anti-Microbial Activities (MIC); type: cell-based; conditions: Enterococcus faecalis, W73, Sensitivity Disk agar-N+5% Horse blood, inoculants 10^6 CFU/ml, read-out: minimum inhibiting concentrations (MIC)
Description: as §1

E. hirae ATCC8043 = assay: Test 1: Anti-Microbial Activities (MIC); type: cell-based; conditions: Enterococcus hirae, Sensitivity Disk agar-N+5% Horse blood, inoculants 10^6 CFU/ml, read-out: minimum inhibiting concentrations (MIC)
Description: as §1

H. influenzae PRC2 = assay: Test 1: Anti-Microbial Activities (MIC); type: cell-based; conditions: Haemophilus influenzae, Sensitivity Disk agar-N+5% Horse blood, inoculants 10^6 CFU/ml, read-out: minimum inhibiting concentrations (MIC)
Description: as §1

H. influenzae PRC44 = assay: Test 1: Anti-Microbial Activities (MIC); type: cell-based; conditions: Haemophilus influenzae, Sensitivity Disk agar-N+5% Horse blood, inoculants 10^6 CFU/ml, read-out: minimum inhibiting concentrations (MIC)
Description: as §1

K. pneumoniae PCI602 = assay: Test 1: Anti-Microbial Activities (MIC); type: cell-based; conditions: Klebsiella pneumoniae, Sensitivity Disk agar-N+5% Horse blood, inoculants 10^6 CFU/ml, read-out: minimum inhibiting concentrations (MIC)
Description: as §1

M. catarrhalis W-0500 = assay: Test 1: Anti-Microbial Activities (MIC); type: cell-based; conditions: Moraxella catarrhalis, W0500, Sensitivity Disk agar-N+5% Horse blood, inoculants 10^6 CFU/ml, read-out: minimum inhibiting concentrations (MIC)
Description: as §1

P. vulgaris GN7919 = assay: Test 1: Anti-Microbial Activities (MIC); type: cell-based; conditions: Proteus vulgaris, Sensitivity Disk agar-N+5% Horse blood, inoculants 10^6 CFU/ml, read-out: minimum inhibiting concentrations (MIC)
Description: as §1

S. aureus 209P JC-1 = assay: Test 1: Anti-Microbial Activities (MIC); type: cell-based; conditions: Staphylococcus aureus, Sensitivity Disk agar-N+5% Horse blood, inoculants 10^6 CFU/ml, read-out: minimum inhibiting concentrations (MIC)
Description: as §1

S. aureus M126 = assay: Test 1: Anti-Microbial Activities (MIC); type: cell-based; conditions: Staphylococcus aureus; S. aureus M126, methicillin-hyperresistant strain (MRSA); Sensitivity Disk agar-N+5% Horse blood; inoculants 10^6 CFU/ml; read-out: minimum inhibiting concentrations (MIC)
Description: as §1

S. epidermidis ATCC14990 = assay: Test 1: Anti-Microbial Activities (MIC); type: cell-based; conditions: Staphylococcus epidermidis, Sensitivity Disk agar-N+5% Horse blood, inoculants 10^6 CFU/ml, read-out: minimum inhibiting concentrations (MIC)
Description: as §1

S. pneumoniae PRC9 = assay: Test 1: Anti-Microbial Activities (MIC); type: cell-based; conditions: Streptococcus pneumoniae; S. pneumoniae PRC9, penicillin-hyperresistant strain (PRSP); Sensitivity Disk agar-N+5% Horse blood; inoculants 10^6 CFU/ml; read-out: minimum inhibiting concentrations (MIC)
Description: as §1

[1] = Test 5: Acute Toxicity (i.v.); type: in vivo, mice (ICR, male); conditions: mice, 2,000 mg/kg i.v.
Description: The compounds of Examples 44, 62, 88, and 111 were tested again in the same manner as the above provided that cilastatin sodium was co-administered.

mouse DHP-I = molecular target: T1, mouse DHP-I (Mus musculus, UniProt P31428); assay: Test 2: stability against DHP-I (mouse); conditions: partly purified Mouse DHP-I; 100 μg (titer)/ml; 37° C., 3 hours; HPLC
T1 sequence (P31428 17-384): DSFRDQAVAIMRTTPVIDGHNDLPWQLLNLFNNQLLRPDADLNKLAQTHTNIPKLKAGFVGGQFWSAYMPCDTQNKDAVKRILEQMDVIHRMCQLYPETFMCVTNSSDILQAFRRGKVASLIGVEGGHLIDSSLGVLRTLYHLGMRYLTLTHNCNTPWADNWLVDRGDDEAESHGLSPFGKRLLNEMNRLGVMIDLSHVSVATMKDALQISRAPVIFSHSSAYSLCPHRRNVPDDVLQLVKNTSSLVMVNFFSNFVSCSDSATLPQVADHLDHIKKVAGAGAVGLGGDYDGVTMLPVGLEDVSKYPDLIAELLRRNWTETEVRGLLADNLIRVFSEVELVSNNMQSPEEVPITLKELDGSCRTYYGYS

porcine renal DHP-I = molecular target: T2, porcine renal DHP-I (Sus scrofa, UniProt P22412); assay: Test 2: stability against DHP-I (porcine); conditions: partly purified Porcine DHP-I, 100 μg (titer)/ml, 37° C., HPLC
T2 sequence (P22412 17-384): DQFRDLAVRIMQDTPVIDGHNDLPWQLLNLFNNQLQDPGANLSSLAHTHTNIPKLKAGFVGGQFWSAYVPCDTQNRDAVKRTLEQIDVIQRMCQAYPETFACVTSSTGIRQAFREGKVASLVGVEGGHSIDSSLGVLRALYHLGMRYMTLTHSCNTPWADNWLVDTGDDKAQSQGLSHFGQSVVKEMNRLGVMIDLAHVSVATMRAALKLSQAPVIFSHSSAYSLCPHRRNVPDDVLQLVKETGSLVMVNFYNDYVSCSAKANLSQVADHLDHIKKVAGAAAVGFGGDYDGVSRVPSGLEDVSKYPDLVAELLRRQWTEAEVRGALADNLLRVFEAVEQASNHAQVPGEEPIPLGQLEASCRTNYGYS

[2] = cilastatin sodium co-administered

Row | Compound | MIC (C. freundii GN346) [µg/mL] | MIC (E. coli NIHJ JC-2) [µg/mL] | MIC (E. faecalis W-73) [µg/mL] | MIC (E. hirae ATCC8043) [µg/mL] | MIC (H. influenzae PRC2) [µg/mL] | MIC (H. influenzae PRC44) [µg/mL] | MIC (K. pneumoniae PCI602) [µg/mL] | MIC (M. catarrhalis W-0500) [µg/mL] | MIC (P. vulgaris GN7919) [µg/mL] | MIC (S. aureus 209P JC-1) [µg/mL] | MIC (S. aureus M126) [µg/mL] | MIC (S. epidermidis ATCC14990) [µg/mL] | MIC (S. pneumoniae PRC9) [µg/mL] | survival (acute toxicity) [1] | survival (acute toxicity) [1, 2] | residual amounts (%) after 3 hours (mouse DHP-I) [%] | residual amounts (%) after 3 hours (porcine renal DHP-I) [%]
1 | C[C@@H](O)[C@H]1C(=O)N2C(C(=O)[O-])=C(c3cn4cnc(S(=O)(=O)N(C)C)c4s3)[C@H](C)[C@H]12.[Na+] [Example 88, Sodium (1S,5R,6S)-2-[7-(N,N-dimethylsulfamoyl)imidazo[5,1-b]thiazol-2-yl]-6-((1R)-1-hydroxyethyl)-1-methyl-1-carbapen-2-em-3-carboxylate] | 3.13 | 0.39 | 0.39 | 0.39 | < 0.025 | 0.1 | 0.39 | < 0.025 | 0.78 | < 0.025 | 1.56 | < 0.025 | 0.05 | All of the animal survived | All of the animal survived | <0.1 | 73
2 | CC(=O)c1nc(C)n2cc(C3=C(C(=O)[O-])N4C(=O)[C@H]([C@@H](C)O)[C@H]4[C@H]3C)sc12.[Na+] [Example 19, Sodium (1S,5R,6S)-2-(7-Acetyl-5-methylimidazo[5,1-b]thiazol-2-yl)-6-((1R)-1-hydroxyethyl)-1-methyl-1-carbapen-2-em-3-carboxylate] |  |  |  |  |  |  |  |  |  |  |  |  |  |  |  | 45 | 77
3 | Cc1nc(S(C)(=O)=O)c2sc(C3=C(C(=O)[O-])N4C(=O)[C@H]([C@@H](C)O)[C@H]4[C@H]3C)cn12.[Na+] [Example 44, Sodium (1S,5R,6S)-6-((1R)-1-Hydroxyethyl)-2-(7-methanesulfonyl-5-methylimidazo[5,1-b]thiazol-2-yl)-1-methyl-1-carbapen-2-em-3-carboxylate] | 12.5 | 0.78 | 0.78 | 0.78 | < 0.025 | 0.1 | 1.56 | < 0.025 | 0.78 | 0.05 | 3.13 | 0.05 | 0.1 | All of the animal survived | All of the animal survived |  | 100
4 | C[C@@H](O)[C@H]1C(=O)N2C(C(=O)O)=C(S[C@@H]3CN[C@H](C(=O)N(C)C)C3)[C@H](C)[C@H]12 [Compound C, meropenem, reference compound] |  |  |  |  |  |  |  |  |  |  |  |  |  |  |  | 8.5 | 41
5 | CCC(=O)c1ncn2cc(C3=C(C(=O)[O-])N4C(=O)[C@H]([C@@H](C)O)[C@H]4C3)sc12.[Na+] [Example 27, Sodium (5R,6S)-6-((1R)-1-Hydroxyethyl)-2-(7-propionylimidazo[5,1-b]thiazol-2-yl)-1-carbapen-2-em-3-carboxylate] | 0.39 | 0.2 | 0.1 | 0.39 | < 0.025 | 0.05 | 0.1 | < 0.025 | 0.2 | 0.05 | 0.78 | 0.05 | 0.05 |  |  | 1.2 | 38
